Measurements from US10941157B2, “Pesticidal compositions and uses thereof” (Gilead Apollo, LLC, priority 2015, dated 2021).
≈ marks a conversion by molar mass, not a printed value.

Columns and labels:
Format in all cases: cell-based
[1] = system: Phytophthora capsici (Pc); assay: In vitro pathogen growth inhibition assay, Pc; conditions: 48 h, ≥90% inhibition, 48 hours vs 2% DMSO control, read-out: Compound Concentration (ppm) sufficient for ≥90% inhibition of growth, Pc
In short: (§1)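 Value reported is the compound concentration reaching ≥90% growth inhibition, from OD readings at 24 and 48 h after blank subtraction, confirmed visually. Inoculum was spores diluted in 17% V8 medium, except Rs, using 1.5 mm mycelial plugs in ¼ PDB; actual compound concentration corrected via OD600.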

[2] = system: Collectotrichum graminicola (Cg); assay: In vitro pathogen growth inhibition assay, Cg; conditions: 48 h, ≥90% inhibition; 48 hours vs 2% DMSO control; read-out: Compound Concentration (ppm) sufficient for ≥90% inhibition of growth, Cg
In short: (§2)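 Spores in 17% V8 liquid medium, or 1.5 mm Rs mycelial plugs in ¼ PDB, incubated with compound; final concentration checked by OD600 for precipitation. OD readings at 24 and 48 h, blank-subtracted, plus visual ratings; value is concentration giving ≥90% growth inhibition.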

[3] = system: Fusarium virguliforme (Fv); assay: In vitro pathogen growth inhibition assay, Fv; conditions: ≥90% inhibition, 48 hours vs 2% DMSO control, read-out: Compound Concentration (ppm) sufficient for ≥90% inhibition of growth, Fv
In short: as §1

[4] = system: Saccharomyces cerevisiae (Sc); assay: Yeast growth inhibition assay; conditions: Saccharomyces cerevisiae, ≥75% inhibition, read-out: Compound Concentration (ppm) sufficient for ≥75% inhibition, Sc
Method: Both tables list the concentration of each compound that was sufficient to ≥90% inhibition of growth for each of the fungal pathogens listed above. In addition, some of compounds were tested in a yeast growth inhibition assay for Saccharomyces cerevisiae (Sc). Table 2 lists the concentration of the tested compound that was sufficient to ≥75% inhibition of Saccharomyces cerevisiae (Sc).

Botrtyis cinerea (Bc) = assay: In vitro pathogen growth inhibition assay, Bc; conditions: 48 h, ≥90% inhibition; 48 hours vs 2% DMSO control; read-out: Compound Concentration (ppm) sufficient for ≥90% inhibition of growth, Bc
In short: as §2

Diplodia maydis (Dm) = assay: In vitro pathogen growth inhibition assay, Dm; conditions: Stenocarpella maydis, 48 h, ≥90% inhibition; 48 hours vs 2% DMSO control; read-out: Compound Concentration (ppm) sufficient for ≥90% inhibition of growth, Dm
In short: as §1

[5] = system: Fusarium moniliforme (Fm); assay: In vitro pathogen growth inhibition assay, Fm; conditions: Fusarium verticillioides; ≥90% inhibition; 48 hours vs 2% DMSO control; read-out: Compound Concentration (ppm) sufficient for ≥90% inhibition of growth, Fm
In short: as §2

Rhizoctonia solani (Rs) = assay: In vitro pathogen growth inhibition assay, Rs (mycelial plugs); conditions: Rhizoctonia solani, 48 h, ≥90% inhibition; mycelial plugs; 48 hours vs 2% DMSO control; read-out: Compound Concentration (ppm) sufficient for ≥90% inhibition of growth, Rs
In short: as §1

Septoria tritici (St) = assay: In vitro pathogen growth inhibition assay, St; conditions: Zymoseptoria tritici, 48 h, ≥90% inhibition; 48 hours vs 2% DMSO control; read-out: Compound Concentration (ppm) sufficient for ≥90% inhibition of growth, St
In short: as §2

Compound | IC90 [1] [µg/mL] | IC90 [2] [µg/mL] | IC90 [3] [µg/mL] | IC75 [4] [µg/mL] | IC90 (Botrtyis cinerea (Bc)) [µg/mL] | IC90 (Diplodia maydis (Dm)) [µg/mL] | IC90 [5] [µg/mL] | IC90 (Rhizoctonia solani (Rs)) [µg/mL] | IC90 (Septoria tritici (St)) [µg/mL]
COc1ccc(F)cc1[C@H](Cn1c(=O)n(C(C)(C)C(N)=O)c(=O)c2c(C)c(-c3ncco3)sc21)OCC1CCC(O)CC1 (stereo partly drawn) [Compound I-104] | > 10 | > 50 | 10 (≈ 16.3 µM) | 11 (≈ 17.9 µM) | 2 (≈ 3.25 µM) | 10 (≈ 16.3 µM) | 0.4 (≈ 0.651 µM) | 10 (≈ 16.3 µM) | > 50
CCNC(=O)C(C)(C)n1c(=O)c2c(C)c(-c3ncco3)sc2n(C[C@H](OC2CCC(=O)CC2)c2ccccc2OC)c1=O [Compound I-105] | > 50 | 50 (≈ 82.1 µM) | 10 (≈ 16.4 µM) | 1.2 (≈ 1.97 µM) | 2 (≈ 3.29 µM) | 10 (≈ 16.4 µM) | 0.4 (≈ 0.657 µM) | > 50 | > 50
COc1ccccc1[C@H](Cn1c(=O)n(C(C)(C)C(=O)N2CCCCC2)c(=O)c2c(C)c(-c3ncco3)sc21)OC1CCC(=O)CC1 [Compound I-106] | > 50 | 10 (≈ 15.4 µM) | 2 (≈ 3.08 µM) | 33.3 (≈ 51.3 µM) | 2 (≈ 3.08 µM) | 2 (≈ 3.08 µM) | 0.4 (≈ 0.617 µM) | 50 (≈ 77.1 µM) | > 50
COc1ccccc1[C@H](Cn1c(=O)n(C(C)(C)C(=O)OCc2ccccc2)c(=O)c2c(C)c(-c3ncco3)sc21)OC1CCC(=O)CC1 [Compound I-107] | > 50 | > 50 | > 50 | > 33.3 | 0.4 (≈ 0.595 µM) | ≥ 0.4 | 0.4 (≈ 0.595 µM) | > 50 | > 50
CCNC(=O)C(C)(C)n1c(=O)c2c(C)c(C(=O)OCC)sc2n(C[C@H](OC(C)C)c2ccccc2OC)c1=O [Compound I-108] | > 50 | 10 (≈ 17.9 µM) | 2 (≈ 3.57 µM) | 11.1 (≈ 19.8 µM) | 2 (≈ 3.57 µM) | 10 (≈ 17.9 µM) | 0.4 (≈ 0.715 µM) | 50 (≈ 89.3 µM) | > 50
CCOC(=O)c1sc2c(c1C)c(=O)n(C(C)(C)C(=O)N1CCOCC1)c(=O)n2C[C@H](OC(C)C)c1ccccc1OC [Compound I-109] | > 50 | 10 (≈ 16.6 µM) | 10 (≈ 16.6 µM) | 11.1 (≈ 18.4 µM) | 0.4 (≈ 0.665 µM) | 2 (≈ 3.32 µM) | 0.4 (≈ 0.665 µM) | 50 (≈ 83.1 µM) | > 50
COc1ccccc1[C@H](Cn1c(=O)n(C(C)(C)C(=O)N2CCCCC2)c(=O)c2c(C)c(-c3ncco3)sc21)O[C@H]1CC[C@@H](O)CC1 [Compound I-110] | > 50 | > 50 | 2 (≈ 3.07 µM) | 33.3 (≈ 51.2 µM) | 2 (≈ 3.07 µM) | 10 (≈ 15.4 µM) | 0.4 (≈ 0.615 µM) | 50 (≈ 76.8 µM) | > 50
COc1ccccc1[C@H](Cn1c(=O)n(C(C)(C)C(=O)N2CCCC2)c(=O)c2c(C)c(-c3ncco3)sc21)O[C@H]1CC[C@@H](O)CC1 [Compound I-111] | > 50 | 10 (≈ 15.7 µM) | 2 (≈ 3.14 µM) | 3.7 (≈ 5.81 µM) | 2 (≈ 3.14 µM) | 10 (≈ 15.7 µM) | 0.4 (≈ 0.628 µM) | 10 (≈ 15.7 µM) | 50 (≈ 78.5 µM)
COc1ccccc1[C@H](Cn1c(=O)n(C(C)(C)C(=O)N2CCCC2)c(=O)c2c(C)c(-c3ncco3)sc21)OC1CCC(=O)CC1 [Compound I-112] | > 50 | ≥ 2 | 10 (≈ 15.8 µM) | 3.7 (≈ 5.83 µM) | 2 (≈ 3.15 µM) | 10 (≈ 15.8 µM) | 0.4 (≈ 0.63 µM) | 50 (≈ 78.8 µM) | 50 (≈ 78.8 µM)
COc1ccccc1[C@H](Cn1c(=O)n(C(C)(C)C(=O)N2CCOCC2)c(=O)c2c(C)c(-c3ncco3)sc21)OC(C)C [Compound I-143] | > 50 | 50 (≈ 83.8 µM) | ≥ 10 | 11 (≈ 18.4 µM) | 2 (≈ 3.35 µM) | 10 (≈ 16.8 µM) | 2 (≈ 3.35 µM) | > 50 | > 50
CCNC(=O)C(C)(C)n1c(=O)c2c(C)c(-c3ncco3)sc2n(C[C@H](OC(C)C)c2ccccc2OC)c1=O [Compound I-144] | > 50 | 50 (≈ 90.1 µM) | 10 (≈ 18 µM) | 11 (≈ 19.8 µM) | 10 (≈ 18 µM) | 10 (≈ 18 µM) | 2 (≈ 3.61 µM) | > 50 | > 50
COc1ccccc1[C@H](Cn1c(=O)n(C(C)(C)C(N)=O)c(=O)c2c(C)c(-c3ncco3)sc21)OC1CCOCC1 [Compound I-145] | > 50 | 50 (≈ 87.9 µM) | > 50 | > 33 | 50 (≈ 87.9 µM) | 50 (≈ 87.9 µM) | 2 (≈ 3.52 µM) | > 50 | > 50
COc1ccc(F)cc1[C@H](Cn1c(=O)n(C(C)(C)C(N)=O)c(=O)c2c(C)c(C3CCC3)sc21)OC1CCOCC1 [Compound I-147] | > 50 | 50 (≈ 87.2 µM) | 2 (≈ 3.49 µM) | 33 (≈ 57.5 µM) | 10 (≈ 17.4 µM) | > 50 | 2 (≈ 3.49 µM) | 50 (≈ 87.2 µM) | > 50
COc1ccc(F)cc1[C@H](Cn1c(=O)n(CCS(N)(=O)=O)c(=O)c2c(C)c(-c3ncco3)sc21)OC1CCOCC1 [Compound I-148] | > 50 | 50 (≈ 82.1 µM) | 50 (≈ 82.1 µM) | 33 (≈ 54.2 µM) | 10 (≈ 16.4 µM) | > 10 | 2 (≈ 3.29 µM) | 50 (≈ 82.1 µM) | > 50
COc1ccc(F)cc1[C@H](Cn1c(=O)n(C(C)(C)C(N)=O)c(=O)c2c(C)c(-c3ncco3)sc21)OCC1CCC(=O)CC1 [Compound I-149] | > 50 | 50 (≈ 81.6 µM) | 2 (≈ 3.26 µM) | 11 (≈ 18 µM) | 10 (≈ 16.3 µM) | 50 (≈ 81.6 µM) | 2 (≈ 3.26 µM) | > 50 | > 50
COc1ccc(F)cc1[C@H](Cn1c(=O)n(C(C)(C)C(=O)N2CCOCC2)c(=O)c2c(C)c(-n3cccn3)sc21)OC(C)C [Compound I-151] | > 50 | 50 (≈ 81.5 µM) | 2 (≈ 3.26 µM) | 11 (≈ 17.9 µM) | 10 (≈ 16.3 µM) | 10 (≈ 16.3 µM) | 2 (≈ 3.26 µM) | > 50 | > 50
COc1ccccc1[C@H](Cn1c(=O)n(C(C)(C)C(=O)N2CCOCC2)c(=O)c2c(C)c(-c3ncco3)sc21)OC1CCOCC1 [Compound I-152] | > 50 | 50 (≈ 78.3 µM) | > 50 | > 33 | 10 (≈ 15.7 µM) | 50 (≈ 78.3 µM) | 2 (≈ 3.13 µM) | > 50 | > 50
